Reference: ChEMBL document CHEMBL1125043, “Synthesis and biological activity of an acyclic analogue of 5,6,7,8-tetrahydrofolic acid, N-[4-[[3-(2,4-diamino-1,6-dihydro-6-oxo-5- pyrimidinyl)propyl]amino]-benzoyl]-L-glutamic acid” (J Med Chem, 1990)

Columns and labels:
Sus scrofa [1] = species on record: Sus scrofa; test: Relative Vmax for its activation for Hog Liver Folyl-polyglutamate synthase was determined
Detroit 98 = test: Evaluated in vitro for ability to inhibit the Detroit 98 cell lines; format: functional, cell-based; conditions: Homo sapiens
L cells [2] = test: Evaluated for reversal of L cell inhibition, where reversal of toxicity was evaluated by the addition of Thymidine + Hypoxanthine; format: functional, Mus musculus, L929
L cells [3] = test: Evaluated for reversal of L cell inhibition, where reversal of toxicity was evaluated by the addition of Hypoxanthine (37 uM); format: functional, Mus musculus, L929
L cells [4] = test: Evaluated for reversal of L cell inhibition, where reversal of toxicity was evaluated by the addition of Leucovorin (0.2 uM); format: functional, Mus musculus, L929
[5] = Ratio of app Km to ral Vmax
L cells [6] = test: Evaluated for reversal of L cell inhibition, where reversal of toxicity was evaluated by the addition of Thymidine (20 uM); format: functional, Mus musculus, L929
L cells [7] = test: Evaluated in vitro for ability to inhibit the L cell lines.; format: functional, cell-based; conditions: Mus musculus, L929
Sus scrofa [8] = species on record: Sus scrofa; test: Apparent Km in uM for its activation for Hog Liver Folyl-polyglutamate synthase was determined
Mus musculus = species on record: Mus musculus; test: Evaluated for inhibitory activity on 10-formyltetrahydrofolate synthetase(L cell) at folate substrate concentration of 100 uM
[9] = molecular target: T1, Serine hydroxymethyltransferase, cytosolic (Mus musculus) (UniProt P50431); test: Evaluated for inhibitory activity on Serine hydroxymethyl transferase (Lcell) at folate substrate concentration of 160 uM
T1 sequence (whole entry): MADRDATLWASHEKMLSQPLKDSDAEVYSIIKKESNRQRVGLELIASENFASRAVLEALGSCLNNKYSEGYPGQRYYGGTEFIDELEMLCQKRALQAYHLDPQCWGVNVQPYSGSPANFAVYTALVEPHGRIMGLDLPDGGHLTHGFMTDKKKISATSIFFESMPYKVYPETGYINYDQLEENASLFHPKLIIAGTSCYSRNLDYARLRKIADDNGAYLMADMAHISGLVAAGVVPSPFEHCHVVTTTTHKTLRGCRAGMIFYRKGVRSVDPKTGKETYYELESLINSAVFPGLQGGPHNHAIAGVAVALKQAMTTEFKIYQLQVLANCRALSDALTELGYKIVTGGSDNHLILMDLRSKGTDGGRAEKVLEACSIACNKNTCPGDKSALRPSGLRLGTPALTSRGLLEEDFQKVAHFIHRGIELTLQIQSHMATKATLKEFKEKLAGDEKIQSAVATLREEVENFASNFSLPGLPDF

[10] = molecular target: T2, Dihydrofolate reductase (Rattus norvegicus) (UniProt Q920D2); test: Evaluated for inhibitory activity on Dihydrofolate reductase(rat liver) at folate substrate concentration of 45 uM
T2 sequence (whole entry): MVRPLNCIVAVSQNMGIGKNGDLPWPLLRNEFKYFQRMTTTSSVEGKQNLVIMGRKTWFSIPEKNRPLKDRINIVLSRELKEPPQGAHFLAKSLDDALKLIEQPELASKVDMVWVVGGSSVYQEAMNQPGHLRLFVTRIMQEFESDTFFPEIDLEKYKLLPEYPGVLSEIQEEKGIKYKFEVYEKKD

[11] = molecular target: T3, C-1-tetrahydrofolate synthase, cytoplasmic (Mus musculus) (UniProt Q922D8); test: Evaluated for inhibitory activity on 5,10-Methylene Tetrahydrofolate Cyclohydrolase(L cell) at folate substrate concentration of 100 uM
T3 sequence (whole entry): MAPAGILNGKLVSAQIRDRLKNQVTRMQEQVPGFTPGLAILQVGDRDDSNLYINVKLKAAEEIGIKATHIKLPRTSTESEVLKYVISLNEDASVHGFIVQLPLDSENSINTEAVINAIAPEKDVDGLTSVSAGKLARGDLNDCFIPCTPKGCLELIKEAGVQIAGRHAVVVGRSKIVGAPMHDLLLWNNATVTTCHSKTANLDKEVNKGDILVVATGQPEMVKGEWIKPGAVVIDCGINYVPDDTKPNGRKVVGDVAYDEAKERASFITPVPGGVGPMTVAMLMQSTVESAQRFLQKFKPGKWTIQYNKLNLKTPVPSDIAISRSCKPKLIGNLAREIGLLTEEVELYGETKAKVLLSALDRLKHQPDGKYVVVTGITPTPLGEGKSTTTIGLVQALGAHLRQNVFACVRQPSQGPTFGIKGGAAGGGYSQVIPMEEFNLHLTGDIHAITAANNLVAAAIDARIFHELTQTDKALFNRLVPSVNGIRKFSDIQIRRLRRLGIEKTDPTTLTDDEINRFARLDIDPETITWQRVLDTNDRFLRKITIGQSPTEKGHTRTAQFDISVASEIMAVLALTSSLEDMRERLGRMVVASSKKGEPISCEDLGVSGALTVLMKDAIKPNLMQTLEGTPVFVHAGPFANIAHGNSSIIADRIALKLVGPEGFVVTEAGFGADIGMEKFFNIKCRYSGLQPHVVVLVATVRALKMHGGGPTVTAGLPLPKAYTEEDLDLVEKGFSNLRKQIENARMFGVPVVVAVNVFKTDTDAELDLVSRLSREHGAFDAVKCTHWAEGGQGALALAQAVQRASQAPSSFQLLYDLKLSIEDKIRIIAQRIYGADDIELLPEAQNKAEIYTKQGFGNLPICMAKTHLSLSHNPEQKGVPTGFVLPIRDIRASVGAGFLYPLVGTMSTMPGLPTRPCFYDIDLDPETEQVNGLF

[12] = molecular target: T3, C-1-tetrahydrofolate synthase, cytoplasmic (Mus musculus); test: Evaluated for inhibitory activity on 5,10-Methenyl Tetrahydrofolate Cyclohydrolase(L cell) at folate substrate concentration of 100 uM
[13] = molecular target: Methionine synthase (Mus musculus) (UniProt A6H5Y3); test: Evaluated for inhibitory activity on Methionine synthase(L cell) at folate substrate concentration of 100 uM
[14] = molecular target: T4, Bifunctional purine biosynthesis protein ATIC (Mus musculus, UniProt Q9CWJ9); test: Diglutamyl homologue inhibition activity against the AICAR formyltransferase was determined against L cell; format: cell-based
T4 sequence (Q9CWJ9 whole entry): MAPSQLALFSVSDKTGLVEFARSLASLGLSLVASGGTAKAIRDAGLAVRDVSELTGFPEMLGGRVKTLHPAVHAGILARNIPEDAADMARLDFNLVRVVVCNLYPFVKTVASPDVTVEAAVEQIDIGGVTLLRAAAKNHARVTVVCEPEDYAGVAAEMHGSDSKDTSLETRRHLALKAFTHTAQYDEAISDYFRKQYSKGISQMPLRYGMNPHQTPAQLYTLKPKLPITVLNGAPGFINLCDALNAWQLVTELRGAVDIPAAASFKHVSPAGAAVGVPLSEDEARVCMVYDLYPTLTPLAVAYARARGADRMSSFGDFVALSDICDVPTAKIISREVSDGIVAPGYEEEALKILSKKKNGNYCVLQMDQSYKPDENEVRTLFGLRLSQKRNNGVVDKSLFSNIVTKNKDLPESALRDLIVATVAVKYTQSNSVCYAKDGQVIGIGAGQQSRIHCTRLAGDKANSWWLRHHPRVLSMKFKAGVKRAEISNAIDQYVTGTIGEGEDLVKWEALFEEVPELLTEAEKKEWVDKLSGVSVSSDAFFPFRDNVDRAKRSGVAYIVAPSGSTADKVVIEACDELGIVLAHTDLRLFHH

[15] = molecular target: T5, Bifunctional purine biosynthesis protein ATIC (Homo sapiens, UniProt P31939); test: Inhibition activity against AICAR formyltransferase determined against MOLT-4; format: cell-based
[16] = molecular target: T5, Bifunctional purine biosynthesis protein ATIC; test: Hexaglutamyl homologue inhibition activity against the AICAR formyltransferase was determined against MOLT-4; format: cell-based
[17] = molecular target: T4, Bifunctional purine biosynthesis protein ATIC; test: Hexaglutamyl homologue inhibition activity against the AICAR formyltransferase was determined against L cell; format: cell-based
[18] = molecular target: T4, Bifunctional purine biosynthesis protein ATIC; test: Triglutamyl homologue inhibition activity against AICAR formyltransferase was determined against L cell; format: cell-based
[19] = molecular target: T4, Bifunctional purine biosynthesis protein ATIC; test: Inhibition activity against AICAR formyltransferase determined against L cell; format: cell-based
P388 [20] = test: Effect on P388 tumor cell growth in mice. The percentage of increased life span was determined administered 5 mg/kg schedule - t.i.d., days 1-4; format: functional; conditions: Mus musculus, P388, intraduodenal
MOLT-4 = test: Antitumor activity on MOLT-4 T-cell acute lymphoblastic leukemia cell lines; format: functional, cell-based; conditions: Homo sapiens
[21] = Triglutamyl homologue inhibition activity against Glycinamide ribonucleotide transformylase (GAR-TFase)was determined against L cell; format: cell-based, Mus musculus
[22] = Diglutamyl homologue inhibition activity against the Glycinamide ribonucleotide transformylase (GAR-TFase)was determined against L cell; format: cell-based, Mus musculus
[23] = Inhibition activity against Glycinamide ribotide formyltransferase against L cell; format: cell-based
P388 [24] = test: Effect on P388 tumor cell growth in mice. The percentage of increased life span was determined administered 10 mg/kg schedule - t.i.d., days 1-4; format: functional; conditions: Mus musculus, P388, intraduodenal
WiDr = test: Antitumor activity on WiDr colon adenocarcinoma cell lines; format: functional, cell-based; conditions: Homo sapiens
L cells [25] = test: Evaluated for reversal of L cell inhibition, where reversal of toxicity was evaluated by the addition of Thymidine Hypoxanthine; format: functional, Mus musculus, L929
CCRF-CEM = test: Antitumor activity on CCRF-CEM T-cell acute lymphoblastic leukemia cell lines; format: functional, cell-based; conditions: Homo sapiens
MCF7 = test: Antitumor activity on MCF-7 breast adenocarcinoma cell lines; format: functional, cell-based; conditions: Homo sapiens
[26] = Hexaglutamyl homologue inhibition activity against the Glycinamide ribonucleotide transformylase (GAR-TFase) was determined against hog liver; format: tissue-based, Sus scrofa
SW480 = test: Antitumor activity on SW 480 colon adenocarcinoma cell lines; format: functional, cell-based; conditions: Homo sapiens
[27] = tested on: Thymidylate synthase (Bos taurus); test: Evaluated for inhibitory activity on Thymidylate synthase(calf thymus) at folate substrate concentration of 200 uM
[28] = molecular target: T3, C-1-tetrahydrofolate synthase, cytoplasmic (Mus musculus); test: Evaluated for inhibitory activity on 5,10-methylenetetrahydrofolate dehydrogenase(L cell) at folate substrate concentration of 100 uM
[29] = Inhibition activity against Glycinamide ribonucleotide transformylase (GAR-TFase) against L cell; format: cell-based, Mus musculus
A-427 = test: Antitumor activity on A-427 lung carcinoma cell lines; format: functional, cell-based; conditions: Homo sapiens
P388 [30] = test: Effect on P388 tumor cell growth in mice. The percentage of increased life span was determined administered 7.5 mg/kg schedule - b.i.d., days 1-3; format: functional; conditions: Mus musculus, P388, intraduodenal
[31] = Hexaglutamyl homologue inhibition activity against the Glycinamide ribonucleotide transformylase (GAR-TFase) was determined against L cell; format: cell-based, Mus musculus
P388 [32] = test: Effect on P388 tumor cell growth in mice. The percentage of increased life span was determined administered 75 mg/kg schedule - QD,days1,5,9; format: functional; conditions: Mus musculus

Sequence of Methionine synthase (Mus musculus) (A6H5Y3 whole entry): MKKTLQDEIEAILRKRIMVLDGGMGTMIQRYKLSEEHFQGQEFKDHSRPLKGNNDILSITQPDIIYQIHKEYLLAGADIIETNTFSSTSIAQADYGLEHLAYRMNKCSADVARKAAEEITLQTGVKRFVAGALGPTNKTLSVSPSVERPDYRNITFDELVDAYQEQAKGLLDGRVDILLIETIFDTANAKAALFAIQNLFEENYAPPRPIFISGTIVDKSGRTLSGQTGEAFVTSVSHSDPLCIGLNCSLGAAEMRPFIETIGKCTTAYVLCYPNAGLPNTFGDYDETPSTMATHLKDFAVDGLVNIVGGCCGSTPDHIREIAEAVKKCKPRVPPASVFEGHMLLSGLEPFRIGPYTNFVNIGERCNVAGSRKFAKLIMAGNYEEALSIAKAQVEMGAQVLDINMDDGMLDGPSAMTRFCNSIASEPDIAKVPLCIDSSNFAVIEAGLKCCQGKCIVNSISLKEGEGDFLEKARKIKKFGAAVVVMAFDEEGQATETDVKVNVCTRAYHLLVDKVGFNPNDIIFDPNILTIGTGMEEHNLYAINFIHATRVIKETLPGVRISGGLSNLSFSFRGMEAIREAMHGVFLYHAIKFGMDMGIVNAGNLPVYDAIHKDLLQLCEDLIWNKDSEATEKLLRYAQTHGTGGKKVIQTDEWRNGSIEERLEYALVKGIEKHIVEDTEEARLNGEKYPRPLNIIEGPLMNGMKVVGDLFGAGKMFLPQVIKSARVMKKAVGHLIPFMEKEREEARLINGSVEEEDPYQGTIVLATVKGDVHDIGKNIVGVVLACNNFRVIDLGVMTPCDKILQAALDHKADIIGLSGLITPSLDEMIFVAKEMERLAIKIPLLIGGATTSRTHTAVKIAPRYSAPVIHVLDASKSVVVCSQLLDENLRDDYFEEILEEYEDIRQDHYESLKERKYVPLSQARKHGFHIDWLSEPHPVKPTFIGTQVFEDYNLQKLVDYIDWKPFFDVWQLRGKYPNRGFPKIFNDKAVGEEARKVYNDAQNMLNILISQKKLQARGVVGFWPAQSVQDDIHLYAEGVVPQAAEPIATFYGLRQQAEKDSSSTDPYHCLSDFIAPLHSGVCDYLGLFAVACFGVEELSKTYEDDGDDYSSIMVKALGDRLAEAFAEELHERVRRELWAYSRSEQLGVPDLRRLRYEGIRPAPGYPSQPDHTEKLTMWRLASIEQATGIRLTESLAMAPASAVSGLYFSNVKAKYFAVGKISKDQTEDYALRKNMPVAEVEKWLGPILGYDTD
T5 sequence (P31939 whole entry): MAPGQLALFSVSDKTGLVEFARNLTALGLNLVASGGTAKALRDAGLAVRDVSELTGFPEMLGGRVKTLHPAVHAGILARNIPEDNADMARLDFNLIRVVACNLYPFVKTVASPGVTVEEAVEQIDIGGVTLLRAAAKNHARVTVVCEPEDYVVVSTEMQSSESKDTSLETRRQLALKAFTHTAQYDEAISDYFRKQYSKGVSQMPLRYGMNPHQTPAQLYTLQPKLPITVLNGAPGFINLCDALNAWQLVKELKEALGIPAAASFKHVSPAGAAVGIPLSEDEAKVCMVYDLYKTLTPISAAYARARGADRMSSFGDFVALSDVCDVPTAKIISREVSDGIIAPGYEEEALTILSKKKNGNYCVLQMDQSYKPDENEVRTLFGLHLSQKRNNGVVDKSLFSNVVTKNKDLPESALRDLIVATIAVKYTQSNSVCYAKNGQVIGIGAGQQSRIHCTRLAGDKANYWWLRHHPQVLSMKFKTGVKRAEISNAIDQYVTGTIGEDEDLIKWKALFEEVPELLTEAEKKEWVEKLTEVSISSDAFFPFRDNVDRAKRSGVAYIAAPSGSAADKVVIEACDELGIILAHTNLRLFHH

Structure (SMILES) | Relative Vmax (Sus scrofa [1]) | IC50 (Detroit 98) | Inhibition (L cells [3]) | Inhibition (L cells [4]) | Ratio [5] | Inhibition (L cells [6]) | IC50 (L cells [7]) | Km (Sus scrofa [8]) | inhibition (Mus musculus) | inhibition [9] | inhibition [10] | inhibition [12] | inhibition [13] | also measured
Nc1nc(N)c2nc(CNc3ccc(C(=O)N[C@@H](CCC(=O)O)C(=O)O)cc3)cnc2n1 [AMINOPTERIN] | 144% | 2 nM | 79% | 6% | 5.9 | 68% | 2.3 nM | 24.4 µM |  |  |  |  |  | Inhibition (L cells [2]): 0%
CN(CCCc1c(N)nc(N)nc1O)c1ccc(C(=O)NC(CCC(=O)O)C(=O)O)cc1 (stereo not drawn) |  | 2000 nM |  |  |  |  | 280 nM |  |  |  |  |  |  | 
Nc1nc(N)c(CCCNc2ccc(C(=O)NCC(=O)O)cc2)c(O)n1 |  | > 100000 nM |  |  |  |  | > 100000 nM |  |  |  |  |  |  | 
Nc1nc(N)c(CCCN(C=O)c2ccc(C(=O)NC(CCC(=O)O)C(=O)O)cc2)c(O)n1 (stereo not drawn) |  | 210 nM |  |  |  |  |  |  | 0% | 13% | 50% | 34% | 0% | inhibition [11]: 0%
Nc1nc(N)c(CCCNc2ccc(C(=O)N[C@@H](CCC(=O)O)C(=O)O)cc2)c(=O)[nH]1 |  |  |  |  |  |  |  |  |  |  |  |  |  | IC50 [14]: 9.4 µM; IC50 [15]: 94 µM; IC50 [16]: 700 nM; IC50 [17]: 700 nM; IC50 [18]: 1900 nM; IC50 [19]: 200 µM
Nc1nc(N)c(CCCNc2ccc(C(=O)N[C@@H](CCC(=O)O)C(=O)O)cc2)c(O)n1 | 100% | 110 nM | 0% | 6% | 14.9 | 59% | 88 nM | 6.7 µM | 0% | 7% | 0% | 5% | 0% | ILS at 5 mg/kg (P388 [20]): 22%; IC50 (MOLT-4): 58 nM; IC50 [21]: 340 nM; IC50 [22]: 400 nM; IC50 [23]: 2600 nM; ILS at 10 mg/kg (P388 [24]): 80%; IC50 (WiDr): 45 nM; Inhibition (L cells [25]): 0%; IC50 (CCRF-CEM): 47 nM; IC50 (MCF7): 37 nM; IC50 [26]: 260 nM; IC50 (SW480): 50 nM; inhibition [27]: 0%; inhibition [28]: 0%; IC50 [29]: 3000 nM; IC50 (A-427): 43 nM; ILS at 7.5 mg/kg (P388 [30]): 40%; IC50 [31]: 80 nM; ILS at 75 mg/kg (P388 [32]): 0%
